Where two headings read alike, the source gives them in different places.
Key:
[1] = Tolerability of chronic treatment in tumor-bearing animals; type: in vivo, athymic nude mice
Experimental: Chronic treatment at the highest dose in tumor-bearing animals appeared to be well tolerated, with ‹10% reduction in body mass even at the highest dose of 600mg/kg after 4.5 weeks of daily treatment (Supplementary Figure S9d).
A498 cells were injected subcutaneously in the flank of athymic nude mice at 1x10^6/mouse. Once tumor burden reached >50mm^3, SSI-4 treatment was administered at 60, 180, or 600 mg/kg in custom AIN76 animal chow (Research Diets, Inc.), given continuously for 4.5 weeks. Tumor burden was measured using calipers. For the lung tumor study, 2 million ACHN- pSIN Luc Ub Emerald GFP cells were injected intravenously in 50µL of PBS in athymic nude mice. 54 days after implantation, animals began SSI-4 treatment (180 mg/kg, chow, continuous) for 28 days. Once therapy was completed, lung tissue was harvested and analyzed for tumor burden via ex vivo bioluminescent imaging, and hematoxylin and eosin (H&E) staining of formalin-fixed, paraffin-embedded lung tissue. 20× images were obtained using Scanscope XT and Imagescope software.
Supplementary Figure 9: Patient survival correlated with SCD1 gene expression. […] (d) Change in body weight (BW) corrected for individual total weight, recorded during in vivo dose-response to SSI-4 in A498 xenograft model (Figure 3g). […]

[2] = system: Caki1; assay: Proliferation dose-response IC50, Caki1; type: cell-based; conditions: Homo sapiens, CAKI-1; proliferative IC50, linear regression modeling of dose-response
Experimental: (§1) Error bars indicate standard deviation for n=2 replicates. […] To evaluate inhibition of SCD1 by these molecules, we used LC/MS to quantify changes in SCD1-catalyzed conversion of stearoyl-CoA to oleoyl-CoA in response to drug treatments in vitro using SCD1 protein extracted from murine liver (Figure 3c, Supplementary Figure 2g). […] Synthesis routes and spectral data including NMR and MS are also provided (Supplementary Figures 3-6).
Cells were seeded at 5,000 cells/well in clear-bottom 96-well plates in triplicate. Drug treatment was applied at 1:1000 in reduced serum conditions (3%). […] Alternatively, cells were plated 2x10^5/well in 12-well plates (Genesee Scientific) in triplicate prior to drug treatment. After 120-hour treatment, cell number was established using a Coulter Particle Counter (Beckman). Oleic acid-albumin (Sigma Aldrich) was added to media at 5µM, and was applied adjuvant to drug treatment. Drug stocks were prepared in DMSO (Sigma) at 1000x. IC50 dosing per cell line was calculated using CalcuSyn analytical software.

[3] = target: T1, SCD1 protein extracted from murine liver (Mus musculus, UniProt P13516); assay: In vitro SCD1 enzymatic inhibition by LC/MS (stearoyl-CoA to oleoyl-CoA, liver microsomes); type: biochemical; conditions: n=2
T1 construct: Microsomes were isolated from murine liver using Microsome Isolation Kit (BioVision); from tissue; host or cells: murine liver microsomes
T1 sequence (P13516 1-355): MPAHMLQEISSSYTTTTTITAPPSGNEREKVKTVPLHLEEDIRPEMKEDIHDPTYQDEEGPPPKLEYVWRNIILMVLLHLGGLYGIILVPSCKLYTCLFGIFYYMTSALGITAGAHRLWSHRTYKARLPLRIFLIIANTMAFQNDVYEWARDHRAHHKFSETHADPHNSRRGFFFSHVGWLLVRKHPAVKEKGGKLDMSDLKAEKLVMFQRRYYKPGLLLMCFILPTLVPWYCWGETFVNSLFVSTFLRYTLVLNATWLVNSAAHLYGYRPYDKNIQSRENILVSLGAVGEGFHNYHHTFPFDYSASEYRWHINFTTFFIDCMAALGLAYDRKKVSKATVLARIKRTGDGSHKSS
From the text: as §1, with “After synthesis feasibility and cost analysis, we synthesized 38 of the selected compounds.” for “Error bars indicate standard deviation for n=2 replicates.”
Microsomes were isolated from murine liver using Microsome Isolation Kit (BioVision) per the manufacturer protocol. […] To quantify biotransformation of ^13C18-stearoyl CoA to ^13C18-oleoyl CoA for drug treatments relative to vehicle controls, supernatants were evaluated using the LC/MS^2 acyl CoA quantitation method of Magnes et al. and adapting selected reaction monitoring (SRM) for isotope-labeled acyl CoAs. […] SRM signal areas for isotope-labeled acyl CoAs were measured relative to the heptadecanoyl CoA I.S. using XCalibur software (Thermo), and percent enzyme inhibition determined by comparing ^13C18-oleoyl CoA quantities between treatment and DMSO control assays. […]

[4] = Pharmacokinetics after oral (PO) and intravenous (IV) administration, serum; type: in vivo, rat; conditions: male, C57BL/6, mouse; for bioavailability: absolute, from AUC0-last and nominal dose; for Cmax / half-life: po
Experimental: (e) Maximum serum concentration (Cmax) of SSI-4 before the administration of a second dose. (f) AUC curve to infinite time. (g) Summary of pharmacokinetics for SSI-4, where absolute bioavailability (%) is quantitated with AUC0-last and nominal dose.
Pharmacokinetic assessment was performed for SSI-4 administered to fasted male C57BL/6 mice either intravenously (IV) or by oral gavage (PO) in DMSO:PEG400:water (10:70:20) as a clear solution at 5 mg/mL (IV dosing), and 1,3 or 10 mg/mL (respectively for the PO dosing). Serum analysis was performed by LC-MS-MS.

IC50 [3]: 1.9 nM
bioavailability ([4]; oral 10 mg/kg): 119%
bioavailability ([4]; oral 30 mg/kg): 152%
bioavailability ([4]; oral 100 mg/kg): 212%
AUC ([4]; oral, 10 mg/kg): 20900 ng·h/mL
AUC ([4]; oral, 30 mg/kg): 71200 ng·h/mL
AUC ([4]; oral, 100 mg/kg): 336000 ng·h/mL
Cmax ([4]; 10 mg/kg): ~4320 ng/mL
half-life ([4]; 10 mg/kg, oral, 10 mg/kg, read-out: T1/2 (converted)): 3.48 h
Cmax ([4]; 30 mg/kg): ~15900 ng/mL
half-life ([4]; 30 mg/kg, oral, 30 mg/kg, read-out: T1/2 (converted)): 2.71 h
Cmax ([4]; 100 mg/kg): ~43300 ng/mL
half-life ([4]; 100 mg/kg, oral, 100 mg/kg, read-out: T1/2 (converted)): 3.94 h
half-life ([4]; 100 mg/kg, range over the oral doses 10, 30, 100 mg/kg, read-out: median serum terminal half-life (T1/2)): 2.71 to 3.94 h
SMILES: CNC(=O)c1ccnc(NC(=O)N2CCC(Oc3ccccc3Cl)CC2)c1 [SSI-4]
primary adverse events ([1]; reversible upon discontinuation of therapy): Ocular changes including bilateral squinting
reduction in body mass ([1]; tumor-bearing animals, 600mg/kg, 4.5 weeks of daily treatment): < 10%
IC50 [2]: 0.01 µM

From article PMC5787466, “Accelerated bottom-up drug design platform enables the discovery of novel stearoyl-CoA desaturase 1 inhibitors for cancer therapy” (Oncotarget, 2017)
